From patent US4181797A, “1-N-(ω-amino-α-hydroxyalkanoyl) derivatives of 4'-deoxy-6'-N-methylkanamycin A” (Bristol-Myers Company, priority 1978, dated 1980)
Converted amounts (≈) assume the structure as drawn. Where two headings read alike, the source gives them in different places.

Legend:
[1] = system: strains which phosphorylate the 3'-hydroxy group; conditions: background statement; cited from earlier work
[2] = system: resistant strains which contain 6'-N-acetylating enzymes; conditions: background statement; cited from earlier work
E. coli A20732 = assay: MIC in Mueller-Hinton agar, ANT(2") producer; type: cell-based; conditions: Escherichia coli
Experimental: (§1) The Minimum Inhibitory Concentrations (MIC's) of BB-K311, amikacin and kanamycin A were determined in Mueller-Hinton agar against a number of kanamycin-sensitive and kanamycin-resistant strains of organisms.

[3] = system: aminoglycoside-sensitive and aminoglycoside-resistant strains; assay: Antibacterial spectrum, Table 1 strains; type: cell-based; conditions: strains of Table 1, compared with amikacin
Experimental: as §1

B. brevis ATCC8185 = assay: MIC in Mueller-Hinton agar, kanamycin-sensitive strain; type: cell-based; conditions: Brevibacillus brevis
Experimental: as §1

S. aureus Smith = assay: as above; type: cell-based; conditions: Staphylococcus aureus
Experimental: as §1

S. marcescens A20019 = assay: as above; type: cell-based; conditions: Serratia marcescens
Experimental: as §1

E. cloacae A20464 = assay: as above; type: cell-based; conditions: Enterobacter cloacae
Experimental: as §1

K. pneumoniae A15130 = assay: as above; type: cell-based; conditions: Klebsiella pneumoniae
Experimental: as §1

P. mirabilis A9900 = assay: as above; type: cell-based; conditions: Proteus mirabilis
Experimental: as §1

P. Morganii A20031 = assay: as above; type: cell-based; conditions: Morganella morganii
Experimental: as §1

E. coli A9632 = assay: as above; type: cell-based; conditions: Escherichia coli
Experimental: as §1

P. vulgaris A9526 = assay: as above; type: cell-based; conditions: Proteus vulgaris
Experimental: as §1

P. stuartii A20615 = assay: as above; type: cell-based; conditions: Providencia stuartii
Experimental: as §1

[4] = system: AAC(6')-producing and ANT(4')-producing strains; assay: Average activity relative to amikacin, Table 2 strains; type: cell-based; conditions: AAC(6')-producing and ANT(4')-producing strains of Table 2
Experimental: as §1

E. coli A20895 = assay: MIC in Mueller-Hinton agar, AAC(3)-I producer; type: cell-based; conditions: Escherichia coli
Experimental: as §1

E. cloacae A21006 = assay: MIC in Mueller-Hinton agar, APH(3')-II producer; type: cell-based; conditions: Enterobacter cloacae
Experimental: as §1

E. coli A20107 = assay: MIC in Mueller-Hinton agar, APH(3')-II producer; type: cell-based; conditions: Escherichia coli
Experimental: as §1

S. aureus A22153 = assay: MIC in Mueller-Hinton agar, AAC(6')-producing strain; type: cell-based; conditions: Staphylococcus aureus
Experimental: as §1

S. epidermidis A22152 = assay: as above; type: cell-based; conditions: Staphylococcus epidermidis
Experimental: as §1

E. cloacae HM-43 = assay: as above; type: cell-based; conditions: Enterobacter cloacae, HM43
Experimental: as §1

P. rettgeri HM-56 = assay: as above; type: cell-based; conditions: Providencia rettgeri, HM56
Experimental: as §1

P. aeruginosa GN315 = assay: as above; type: cell-based; conditions: Pseudomonas aeruginosa
Experimental: as §1

E. coli A2128 = assay: as above; type: cell-based; conditions: Escherichia coli
Experimental: as §1

S. marcescens A21235 = assay: as above; type: cell-based; conditions: Serratia marcescens
Experimental: as §1

S. aureus A22421 = assay: as above; type: cell-based; conditions: Staphylococcus aureus
Experimental: as §1

S. epidermidis A22211 = assay: as above; type: cell-based; conditions: Staphylococcus epidermidis
Experimental: as §1

S. marcescens A22382 = assay: as above; type: cell-based; conditions: Serratia marcescens
Experimental: as §1

S. marcescens A21226 = assay: as above; type: cell-based; conditions: Serratia marcescens
Experimental: as §1

S. marcescens A22288 = assay: as above; type: cell-based; conditions: Serratia marcescens
Experimental: as §1

P. aeruginosa GN4925 = assay: as above; type: cell-based; conditions: Pseudomonas aeruginosa
Experimental: as §1

E. coli A20363 = assay: MIC in Mueller-Hinton agar, APH(3')-I producer; type: cell-based; conditions: Escherichia coli
Experimental: as §1

E. cloacae A20364 = assay: MIC in Mueller-Hinton agar, APH(3')-I producer; type: cell-based; conditions: Enterobacter cloacae
Experimental: as §1

S. epidermidis A22033 = assay: MIC in Mueller-Hinton agar, ANT(4')-producing strain; type: cell-based; conditions: Staphylococcus epidermidis
Experimental: as §1

B. brevis IFO 12334 = assay: as above; type: cell-based; conditions: Brevibacillus brevis, IFO12334
Experimental: as §1

S. aureus A22054 = assay: as above; type: cell-based; conditions: Staphylococcus aureus
Experimental: as §1

NCC1OC(OC2C(N)CC(N)C(OC3OC(CO)C(O)C(N)C3O)C2O)C(O)CC1O (stereo not drawn) [3'-deoxykanamycin]
activity against 3'-hydroxy phosphorylating strains [1]: active against strains which phosphorylate the 3'-hydroxy group | activity against strains with 6'-N-acetylating enzymes [2]: inactivated by other resistant strains

CNC[C@@H]1C[C@H](O)[C@@H](O)[C@@H](O[C@H]2[C@H](O)[C@@H](O[C@H]3O[C@H](CO)[C@@H](O)[C@H](N)[C@H]3O)[C@H](NC(=O)[C@@H](O)CCN)C[C@@H]2N)O1 [BB-K311, 1-N-[L-(-)-γ-amino-α-hydroxybutyryl]-4'-deoxy-6'-N-methylkanamycin A]
MIC (E. coli A20732; E. coli A20732, enzyme produced: ANT(2"), Mueller-Hinton agar, read-out: MIC): 1.6 µg/mL (≈ 2.74 µM) | antibacterial spectrum [3]: antibacterial spectrum similar to amikacin | MIC (B. brevis ATCC8185; B. brevis ATCC8185, enzyme produced: none, Mueller-Hinton agar, read-out: MIC): 1.6 µg/mL (≈ 2.74 µM) | MIC (S. aureus Smith; S. aureus Smith, enzyme produced: none, Mueller-Hinton agar, read-out: MIC): 1.6 µg/mL (≈ 2.74 µM) | MIC (S. marcescens A20019; S. marcescens A20019, enzyme produced: none, Mueller-Hinton agar, read-out: MIC): 1.6 µg/mL (≈ 2.74 µM) | MIC (E. cloacae A20464; E. cloacae A20464, enzyme produced: none, Mueller-Hinton agar, read-out: MIC): 3.1 µg/mL (≈ 5.31 µM) | MIC (K. pneumoniae A15130; K. pneumoniae A15130, enzyme produced: none, Mueller-Hinton agar, read-out: MIC): 1.6 µg/mL (≈ 2.74 µM) | MIC (P. mirabilis A9900; P. mirabilis A9900, enzyme produced: none, Mueller-Hinton agar, read-out: MIC): 6.3 µg/mL (≈ 10.8 µM) | MIC (P. Morganii A20031; P. Morganii A20031, enzyme produced: none, Mueller-Hinton agar, read-out: MIC): 6.3 µg/mL (≈ 10.8 µM) | MIC (E. coli A9632; E. coli A9632, enzyme produced: none, Mueller-Hinton agar, read-out: MIC): 1.6 µg/mL (≈ 2.74 µM) | MIC (P. vulgaris A9526; P. vulgaris A9526, enzyme produced: none, Mueller-Hinton agar, read-out: MIC): 0.8 µg/mL (≈ 1.37 µM) | MIC (P. stuartii A20615; P. stuartii A20615, enzyme produced: none, Mueller-Hinton agar, read-out: MIC): 3.1 µg/mL (≈ 5.31 µM) | activity relative to amikacin, on the average [4]: twice as active as amikacin | MIC (E. coli A20895; E. coli A20895, enzyme produced: AAC(3)-I, Mueller-Hinton agar, read-out: MIC): 3.1 µg/mL (≈ 5.31 µM) | MIC (E. cloacae A21006; E. cloacae A21006, enzyme produced: APH(3')-II, Mueller-Hinton agar, read-out: MIC): 3.1 µg/mL (≈ 5.31 µM) | MIC (E. coli A20107; E. coli A20107, enzyme produced: APH(3')-II, Mueller-Hinton agar, read-out: MIC): 6.3 µg/mL (≈ 10.8 µM) | MIC (S. aureus A22153; S. aureus A22153, AAC(6')-producing, Mueller-Hinton agar, read-out: MIC): 12.5 µg/mL (≈ 21.4 µM) | MIC (S. epidermidis A22152; S. epidermidis A22152, AAC(6')-producing, Mueller-Hinton agar, read-out: MIC): 3.1 µg/mL (≈ 5.31 µM) | MIC (E. cloacae HM-43; E. cloacae HM-43, AAC(6')-producing, Mueller-Hinton agar, read-out: MIC): 3.1 µg/mL (≈ 5.31 µM) | MIC (P. rettgeri HM-56; P. rettgeri HM-56, AAC(6')-producing, Mueller-Hinton agar, read-out: MIC): 12.5 µg/mL (≈ 21.4 µM) | MIC (P. aeruginosa GN315; P. aeruginosa GN315, AAC(6')-producing, Mueller-Hinton agar, read-out: MIC): 25 µg/mL (≈ 42.8 µM) | MIC (E. coli A2128; E. coli A2128, AAC(6')-producing, Mueller-Hinton agar, read-out: MIC): 3.1 µg/mL (≈ 5.31 µM) | MIC (S. marcescens A21235; S. marcescens A21235, AAC(6')-producing, Mueller-Hinton agar, read-out: MIC): 12.5 µg/mL (≈ 21.4 µM) | MIC (S. aureus A22421; S. aureus A22421, AAC(6')-producing, Mueller-Hinton agar, read-out: MIC): 12.5 µg/mL (≈ 21.4 µM) | MIC (S. epidermidis A22211; S. epidermidis A22211, AAC(6')-producing, Mueller-Hinton agar, read-out: MIC): 12.5 µg/mL (≈ 21.4 µM) | MIC (S. marcescens A22382; S. marcescens A22382, AAC(6')-producing, Mueller-Hinton agar, read-out: MIC): 6.3 µg/mL (≈ 10.8 µM) | MIC (S. marcescens A21226; S. marcescens A21226, AAC(6')-producing, Mueller-Hinton agar, read-out: MIC): 3.1 µg/mL (≈ 5.31 µM) | MIC (S. marcescens A22288; S. marcescens A22288, AAC(6')-producing, Mueller-Hinton agar, read-out: MIC): 3.1 µg/mL (≈ 5.31 µM) | MIC (P. aeruginosa GN4925; P. aeruginosa GN4925, AAC(6')-producing, Mueller-Hinton agar, read-out: MIC): 12.5 µg/mL (≈ 21.4 µM) | MIC (E. coli A20363; E. coli A20363, enzyme produced: APH(3')-I, Mueller-Hinton agar, read-out: MIC): 3.1 µg/mL (≈ 5.31 µM) | MIC (E. cloacae A20364; E. cloacae A20364, enzyme produced: APH(3')-I, Mueller-Hinton agar, read-out: MIC): 6.3 µg/mL (≈ 10.8 µM) | MIC (S. epidermidis A22033; S. epidermidis A22033, ANT(4')-producing, Mueller-Hinton agar, read-out: MIC): 1.6 µg/mL (≈ 2.74 µM) | MIC (B. brevis IFO 12334; B. brevis IFO 12334, ANT(4')-producing, Mueller-Hinton agar, read-out: MIC): 3.1 µg/mL (≈ 5.31 µM) | MIC (S. aureus A22054; S. aureus A22054, ANT(4')-producing, Mueller-Hinton agar, read-out: MIC): 3.1 µg/mL (≈ 5.31 µM)

NC[C@H]1O[C@H](O[C@H]2[C@H](O)[C@@H](O[C@H]3O[C@H](CO)[C@@H](O)[C@H](N)[C@H]3O)[C@H](N)C[C@@H]2N)[C@H](O)[C@@H](O)[C@@H]1O [Kanamycin A, kanamycin A]
activity against 3'-hydroxy phosphorylating strains [1]: certain strains of Gram-negative bacteria are resistant to kanamycin A | MIC (E. coli A20732; A20732): 25 µg/mL (≈ 51.6 µM) | MIC (B. brevis ATCC8185; ATCC8185): 1.6 µg/mL (≈ 3.3 µM) | MIC (S. aureus Smith): 0.8 µg/mL (≈ 1.65 µM) | MIC (S. marcescens A20019; A20019): 1.6 µg/mL (≈ 3.3 µM) | MIC (E. cloacae A20464; A20464): 6.3 µg/mL (≈ 13 µM) | MIC (K. pneumoniae A15130; A15130): 1.6 µg/mL (≈ 3.3 µM) | MIC (P. mirabilis A9900; A9900): 1.6 µg/mL (≈ 3.3 µM) | MIC (P. Morganii A20031): 3.1 µg/mL (≈ 6.4 µM) | MIC (E. coli A9632; A9632): 1.6 µg/mL (≈ 3.3 µM) | MIC (P. vulgaris A9526; A9526): 0.8 µg/mL (≈ 1.65 µM) | MIC (P. stuartii A20615; A20615): 1.6 µg/mL (≈ 3.3 µM) | MIC (E. coli A20895; A20895): 1.6 µg/mL (≈ 3.3 µM) | MIC (E. cloacae A21006; A21006): 100 µg/mL (≈ 206 µM) | MIC (E. coli A20107; A20107): 100 µg/mL (≈ 206 µM) | MIC (S. aureus A22153; A22153): > 100 µg/mL | MIC (S. epidermidis A22152; A22152): > 100 µg/mL | MIC (E. cloacae HM-43): > 100 µg/mL | MIC (P. rettgeri HM-56): > 100 µg/mL | MIC (P. aeruginosa GN315; GN315): > 100 µg/mL | MIC (E. coli A2128; A2128): 100 µg/mL (≈ 206 µM) | MIC (S. marcescens A21235; A21235): 50 µg/mL (≈ 103 µM) | MIC (S. aureus A22421; A22421): > 100 µg/mL | MIC (S. epidermidis A22211; A22211): > 100 µg/mL | MIC (S. marcescens A22382; A22382): 25 µg/mL (≈ 51.6 µM) | MIC (S. marcescens A21226; A21226): 12.5 µg/mL (≈ 25.8 µM) | MIC (S. marcescens A22288; A22288): > 100 µg/mL | MIC (P. aeruginosa GN4925; GN4925): 100 µg/mL (≈ 206 µM) | MIC (E. coli A20363; A20363): 100 µg/mL (≈ 206 µM) | MIC (E. cloacae A20364; A20364): 100 µg/mL (≈ 206 µM) | MIC (S. epidermidis A22033; A22033): 50 µg/mL (≈ 103 µM) | MIC (B. brevis IFO 12334): > 100 µg/mL | MIC (S. aureus A22054; A22054): > 100 µg/mL
